≈ marks a conversion by molar mass, not a printed value. Where two headings read alike, the source gives them in different places.

Data on four compounds can be found in patent publication US4735949A, “Disubstituted-7-pyrrolidinonaphthyridine antibacterial agents” (Warner-Lambert Company, priority 1987, dated 1988).

Common to all, as to assay: in vitro antibacterial activity, microtitration dilution method
Assay type in all cases: cell-based

One test has as its system Proteus rettgeri M 1771. The settings on record: Providencia rettgeri. The text has this:
(§1) Agents & Chemoth., 6, 124 (1974), which is incorporated herein by reference.

For test [1], the system named is Klebsiella pneumoniae MGH-2.
From the text: as §1

The subject of test [2] is Pseudomonas aeruginosa UI-18. The following applies: UI18; Pseudomonas aeruginosa UI-18, in vitro; read-out: Minimal Inhibitory Concentration MIC.
From the text: as §1

The subject of test [3] is Enterobacter cloacae MA 2646.
From the text: as §1

The subject of another test is Escherichia coli Vogel. The settings on record: read-out: Minimal Inhibitory Concentration MIC.
From the text: as §1

For test [4], the system named is Streptococcus pneumoniae SV-1. The settings on record: SV1; Streptococcus pneumoniae SV-1, in vitro; read-out: Minimal Inhibitory Concentration MIC. An excerpt:
(§2) The compounds of the invention display antibacterial activity when tested by the microtitration dilution method as described in Heifetz, et al, Antimicr. Agents & Chemoth., 6, 124 (1974), which is incorporated herein by reference.
(§3) By use of the above referenced method, the following minimum inhibitory concentration values (MICs in μg/ml) were obtained for representative compounds of the invention.

Test [5] deals with Staphylococcus aureus H 228. The settings on record: H228; Staphylococcus aureus H 228, in vitro; read-out: Minimal Inhibitory Concentration MIC.
From the text: as §2, §3

Test [6] relates to Streptococcus pyogenes C-203. The following applies: C203; Streptococcus pyogenes C-203, in vitro; read-out: Minimal Inhibitory Concentration MIC.
From the text: as §2, §3

For test [7], the system named is Staphylococcus aureus UC-76. The settings on record: UC76; Staphylococcus aureus UC-76, in vitro; read-out: Minimal Inhibitory Concentration MIC.
From the text: as §2, §3

Test [8] has as its system Streptococcus faecalis MGH-2. The settings on record: Enterococcus faecalis, MGH2; Streptococcus faecalis MGH-2, in vitro; read-out: Minimal Inhibitory Concentration MIC.
From the text: as §2, §3

The mark [9] stands for this setting: M1771, Proteus rettgeri M 1771, in vitro, read-out: Minimal Inhibitory Concentration MIC.
Where [10] appears, read: MA2646, Enterobacter cloacae MA 2646, in vitro, read-out: Minimal Inhibitory Concentration MIC.
The mark [11] stands for this setting: Klebsiella pneumoniae, MGH2, read-out: Minimal Inhibitory Concentration MIC.
The mark [12] stands for this setting: M1771, read-out: Minimal Inhibitory Concentration MIC.

For the compound `NC1CN(c2c(F)cc3c(=O)c(C(=O)O)cn(C4CC4)c3c2F)CC1c1ccccc1` (centres unmarked) [Example 3, 7-[(3-Amino-4-phenyl)-1-pyrrolidinyl]-1-cyclopropyl-6,8-difluoro-1,4-dihydro-4-oxo-3-quinolinecarboxylic acid], the MIC in the test with Proteus rettgeri M 1771 (setting [9]) turned out to be 0.4 mg/L (≈ 0.94 µM); in test [1] (MGH2, Klebsiella pneumoniae MGH-2, in vitro, read-out: Minimal Inhibitory Concentration MIC) it was 0.2 mg/L (≈ 0.47 µM); in test [2], 1.6 mg/L (≈ 3.76 µM); in test [3] (setting [10]), 0.2 mg/L (≈ 0.47 µM); with Escherichia coli Vogel, 0.1 mg/L (≈ 0.235 µM); in test [4], 0.1 mg/L (≈ 0.235 µM). For the same compound, the MIC in test [5] is 0.05 mg/L (≈ 0.118 µM); in test [6] it was 0.1 mg/L (≈ 0.235 µM); in test [7], 0.025 mg/L (≈ 0.0588 µM); in test [8], 0.1 mg/L (≈ 0.235 µM).
As to `NCC1CN(c2c(F)cc3c(=O)c(C(=O)O)cn(C4CC4)c3c2F)CC1c1ccccc1` (centres unmarked) [Example 2], the MIC in the test with Proteus rettgeri M 1771 (setting [9]) amounted to 0.4 mg/L (≈ 0.91 µM); in test [1] (setting [11]), 0.1 mg/L (≈ 0.228 µM); in test [2] it was 1.6 mg/L (≈ 3.64 µM); in test [3] (setting [10]), 0.2 mg/L (≈ 0.455 µM); in [4], 0.006 mg/L (≈ 0.0137 µM); in test [5], 0.013 mg/L (≈ 0.0296 µM). Besides, the figures for the MIC in test [6], in test [7] and in [8] were 0.013 mg/L (≈ 0.0296 µM), 0.006 mg/L (≈ 0.0137 µM) and 0.013 mg/L (≈ 0.0296 µM), respectively.
As for `O=C(O)c1cn(C2CC2)c2c(F)c(N3CCC(O)(c4ccccc4)C3)c(F)cc2c1=O` (centres unmarked) [Example 4, 1-Cyclopropyl-6,8-difluoro-1,4-dihydro-7-[(3-hydroxy-3-phenyl)1-pyrrolidinyl]-4-oxo-3-quinolinecarboxylic acid], the MIC was 0.1 mg/L (≈ 0.235 µM) in the test with Proteus rettgeri M 1771 (setting [12]); 0.1 mg/L (≈ 0.235 µM) in test [1] (setting [11]); 0.013 mg/L (≈ 0.0305 µM) in test [4]; 0.003 mg/L (≈ 0.00704 µM) in [5]; 0.05 mg/L (≈ 0.117 µM) in [6]; 0.003 mg/L (≈ 0.00704 µM) in [7]. The MIC in test [8] came out at 0.025 mg/L (≈ 0.0586 µM).
In the case of `NC1(c2ccccc2)CCN(c2c(F)cc3c(=O)c(C(=O)O)cn(C4CC4)c3c2F)C1` (centres unmarked) [Example 1, 7-[(3-Amino-3-phenyl)-1-pyrrolidinyl]-1-cyclopropyl-6,8-difluoro-1,4-dihydro-4-oxo-3-quinolinecarboxylic acid], the MIC came out at 0.1 mg/L (≈ 0.235 µM) in the test with Proteus rettgeri M 1771 (setting [12]); 0.1 mg/L (≈ 0.235 µM) in test [1] (setting [11]); 0.05 mg/L (≈ 0.118 µM) in [3] (Enterobacter cloacae, MA2646, read-out: Minimal Inhibitory Concentration MIC); 0.05 mg/L (≈ 0.118 µM) in the test on Escherichia coli Vogel; 0.025 mg/L (≈ 0.0588 µM) in test [4]; 0.006 mg/L (≈ 0.0141 µM) in test [5]. Further, the values for the MIC in test [6], in test [7] and in [8] were 0.05 mg/L (≈ 0.118 µM), 0.006 mg/L (≈ 0.0141 µM) and 0.05 mg/L (≈ 0.118 µM), respectively.
